Results published in patent US7211587B2, “Quinoline derivatives and quinazoline derivatives having azolyl group” (Kirin Beer Kabushiki Kaisha, priority 2001, dated 2007).
Structures can show the parent of a compound that is named as a salt. Each block holds one compound with its values, some of them ahead of it.

Key:
human KDR = target: T1, human KDR (Homo sapiens, UniProt P35968); assay: Inhibitory activity against KDR phosphorylation by ELISA (VEGF-stimulated NIH 3T3 cells expressing human KDR); type: cell-based; details: VEGF 100 ng/ml, compound 1 hr, read-out: IC50 (inhibition of KDR phosphorylation)
T1 construct: expressed in transfected cells; host or cells: NIH 3T3 cells (mouse fibroblasts) stably expressing human KDR
Method: The harvested cells were inoculated into wells of a collagen-type one-coat 96-well flat-bottom plate, each containing the same medium, in an amount of 1.5×10^4 per well, followed by cultivation at 37° C. overnight. The medium was then replaced by a DMEM medium containing 0.1% fetal calf serum. A solution of a test compound in dimethyl sulfoxide was added to each well, and the cultivation was continued at 37° C. for additional one hr. A human recombinant vascular endothelial growth factor (hereinafter abbreviated to “VEGF”) was added to a final concentration of 100 ng/ml, and the stimulation of cells was carried out at 37° C. for 2 min. The medium was removed, the cells were washed with phosphate buffered saline (pH 7.4), and 50 μl of a solubilization buffer (20 mM HEPES (pH 7.4), 150 mM NaCl, 0.2% Triton X-100, 10% glycerol, 5 mM sodium orthovanadylate, 5 mM disodium ethylenediaminetetraacetate, and 2 mM Na4P2O7) was then added thereto. The mixture was shaken at 4° C. for 2 hr to prepare a cell extract.
Separately, phosphate buffered saline (50 μl, pH 7.4) containing 5 μg/ml of an anti-phospho-tyrosine antibody (PY20; purchased from Transduction Laboratories) was added to a microplate for ELISA (Maxisorp; purchased from NUNC), followed by standing at 4° C. overnight to form a solid phase on the wells. After washing of the plate, 300 μl of a blocking solution was added, followed by standing at room temperature for 2 hr to perform blocking. After washing, the whole quantity of the cell extract was transferred to the wells, and the plate was then allowed to stand at 4° C. overnight. After washing, an anti-KDR antibody (purchased from Santa Cruz) was allowed to react at room temperature for one hr, and, after washing, a peroxidase-labeled anti-rabbit Ig antibody (purchased from Amersham) was allowed to react at room temperature for one hr. After washing, a chromophoric substrate for peroxidase (purchased from Sumitomo Bakelite Co., Ltd.) was added thereto to initiate a reaction. After a suitable level of color development, a reaction termination solution was added to stop the reaction, and the absorbance at 450 nm was measured with a microplate reader. The KDR phosphorylation activity for each well was determined by presuming the absorbance with the addition of VEGF and without the addition of the medicament to be 100% KDR phosphorylation activity and the absorbance without the addition of the medicament and VEGF to be 0% KDR phosphorylation activity.

[1] = system: Human pulmonary carcinoma cells (LC-6); assay: Antitumor activity against human pulmonary carcinoma cells (LC-6) transplanted into nude mice; type: in vivo; details: LC-6 in nude mice, oral 20 mg/kg once a day for 9 days; for inhibition in vivo at 20 mg/kg: Mus musculus, 216 h, read-out: TGIR (tumor growth inhibition rate)
Method: Human pulmonary carcinoma cells (LC-6) (obtained from Central Laboratories for Experimental Animals) were transplanted into nude mice. When the tumor volume became about 100 mm^3, the mice were grouped so that each group consisted of four mice and the average tumor volume was even among the groups. A test compound was orally administered at a dose of 20 mg/kg to the test groups every day once a day for 9 days, while only a vehicle was administered to a control group in the manner as in the test groups. The tumor growth inhibition rate (TGIR) was calculated as follows: The tumor growth inhibition rate (TGIR)=(1−TX/CX)×100 wherein CX represents the volume of tumor at day X for the control group when the tumor volume at the first day of the administration was presumed to be 1; and TX represents the tumor volume for test compound administration groups.

T1 sequence (P35968 20-1356): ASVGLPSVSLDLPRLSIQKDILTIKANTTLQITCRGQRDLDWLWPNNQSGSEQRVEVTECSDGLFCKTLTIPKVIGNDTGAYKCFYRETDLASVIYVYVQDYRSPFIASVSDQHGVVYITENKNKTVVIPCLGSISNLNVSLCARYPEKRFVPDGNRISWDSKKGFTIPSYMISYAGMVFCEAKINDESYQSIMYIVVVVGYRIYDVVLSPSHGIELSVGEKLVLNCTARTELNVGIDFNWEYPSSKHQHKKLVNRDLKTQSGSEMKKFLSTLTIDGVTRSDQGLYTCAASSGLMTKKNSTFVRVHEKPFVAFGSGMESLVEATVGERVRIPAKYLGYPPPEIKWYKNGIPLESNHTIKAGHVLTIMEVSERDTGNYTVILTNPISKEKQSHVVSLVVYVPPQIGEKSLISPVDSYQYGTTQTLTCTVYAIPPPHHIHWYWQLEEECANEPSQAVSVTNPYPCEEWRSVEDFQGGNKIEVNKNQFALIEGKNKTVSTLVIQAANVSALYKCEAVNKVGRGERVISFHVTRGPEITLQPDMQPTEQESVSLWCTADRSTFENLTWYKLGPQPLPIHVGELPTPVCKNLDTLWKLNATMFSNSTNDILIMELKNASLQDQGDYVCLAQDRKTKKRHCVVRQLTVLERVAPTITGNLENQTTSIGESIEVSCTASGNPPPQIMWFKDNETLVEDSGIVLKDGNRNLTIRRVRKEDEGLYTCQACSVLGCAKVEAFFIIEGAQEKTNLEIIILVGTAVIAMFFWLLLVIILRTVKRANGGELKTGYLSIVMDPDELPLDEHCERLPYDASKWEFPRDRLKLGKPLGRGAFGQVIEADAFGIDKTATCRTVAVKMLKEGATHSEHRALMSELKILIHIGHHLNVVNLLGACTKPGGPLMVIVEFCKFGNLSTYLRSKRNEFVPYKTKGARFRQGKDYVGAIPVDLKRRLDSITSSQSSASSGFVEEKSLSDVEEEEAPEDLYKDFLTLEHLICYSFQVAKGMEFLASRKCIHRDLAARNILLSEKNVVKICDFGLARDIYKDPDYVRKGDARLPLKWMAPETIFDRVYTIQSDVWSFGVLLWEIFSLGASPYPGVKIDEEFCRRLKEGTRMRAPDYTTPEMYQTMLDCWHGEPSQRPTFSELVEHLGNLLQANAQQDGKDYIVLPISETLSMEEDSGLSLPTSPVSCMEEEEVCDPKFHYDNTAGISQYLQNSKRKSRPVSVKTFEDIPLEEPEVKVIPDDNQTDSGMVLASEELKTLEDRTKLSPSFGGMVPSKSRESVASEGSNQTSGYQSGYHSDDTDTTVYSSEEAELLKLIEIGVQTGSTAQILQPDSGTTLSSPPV

IC50 (human KDR): < 1 nM
Structure (SMILES): COc1cc2nccc(Oc3ccc(NC(=O)Nc4ccon4)cc3F)c2cc1OC [Ex. 3, N-{4-[(6,7-Dimethoxy-4-quinolyl)oxy]-3-fluorophenyl}-N′-(3-isoxazolyl)urea]
inhibition in vivo at 20 mg/kg [1]: 39.5%

IC50 (human KDR): < 1 nM
Structure (SMILES): COc1cc2nccc(Oc3ccc(NC(=O)Nc4cc(C)no4)c(F)c3)c2cc1OC [Ex. 6, N-{4-[(6,7-Dimethoxy-4-quinolyl)oxy]-2-fluorophenyl}-N′-(3-methyl-5-isoxazolyl)urea]
inhibition in vivo at 20 mg/kg [1]: 29.3%

IC50 (human KDR): 0.2 nM
Structure (SMILES): COc1cc2nccc(Oc3ccc(NC(=O)Nc4cc(C)on4)c(F)c3)c2cc1OC [Ex. 9, N-{4-[(6,7-Dimethoxy-4-quinolyl)oxy]-2-fluorophenyl}-N′-(5-methyl-3-isoxazolyl)urea]
inhibition in vivo at 20 mg/kg [1]: 63.5%

IC50 (human KDR): < 1 nM
Structure (SMILES): COc1cc2nccc(Oc3ccc(NC(=O)Nc4nc(C)cs4)c(Cl)c3)c2cc1OC [Ex. 22, N-{2-Chloro-4-[(6,7-dimethoxy-4-quinolyl)oxy]phenyl}-N′-(4-methyl-1,3-thiazol-2-yl)urea]
inhibition in vivo at 20 mg/kg [1]: 43.8%

IC50 (human KDR): 1.9 nM
Structure (SMILES): COc1cc2nccc(Oc3ccc(NC(=O)Nc4nc(C)c(C)s4)cc3Cl)c2cc1OC [Ex. 25, N-{3-Chloro-4-[(6,7-dimethoxy-4-quinolyl)oxy]phenyl}-N′-(4,5-dimethyl-1,3-thiazol-2-yl)urea]
inhibition in vivo at 20 mg/kg [1]: 18.8%

IC50 (human KDR): < 1 nM
Structure (SMILES): COc1cc2ncnc(Oc3ccc(NC(=O)Nc4ncc(C)s4)c(Cl)c3)c2cc1OC [Ex. 39, N-{2-Chloro-4-[(6,7-dimethoxy-4-quinazolinyl)oxy]phenyl}-N′-(5-methyl-1,3-thiazol-2-yl)urea]
inhibition in vivo at 20 mg/kg [1]: 64%

IC50 (human KDR): 1.3 nM
Structure (SMILES): CCc1nnc(NC(=O)Nc2ccc(Oc3ccnc4cc(OC)c(OC)cc34)cc2)s1 [Ex. 59, N-{4-[(6,7-Dimethoxy-4-quinolyl)oxy]phenyl}-N′-(5-ethyl-1,3,4-thiadiazol-2-yl)urea]

IC50 (human KDR): < 1 nM
Structure (SMILES): CCc1nnc(NC(=O)Nc2ccc(Oc3ccnc4cc(OC)c(OC)cc34)cc2C)s1 [Ex. 60, N-{4-[(6,7-Dimethoxy-4-quinolyl)oxy]-2-methylphenyl}-N′-(5-ethyl-1,3,4-thiadiazol-2-yl)urea]

IC50 (human KDR): 1.5 nM
Structure (SMILES): CCc1nnc(NC(=O)Nc2ccc(Oc3ccnc4cc(OC)c(OC)cc34)c(C)c2C)s1 [Ex. 62, N-{4-[(6,7-Dimethoxy-4-quinolyl)oxy]-2,3-dimethylphenyl}-N′-(5-ethyl-1,3,4-thiadiazol-2-yl)urea]

The next lines start with the compound.

Structure (SMILES): COc1cc2nccc(Oc3ccc(NC(=O)Nc4cc(C)no4)c(Cl)c3)c2cc1OC [Ex. 5, N-{2-Cloro-4-[(6,7-dimethoxy-4-quinolyl)oxy]phenyl}-N′-(3-methyl-5-isoxazolyl)urea]
IC50 (human KDR): < 1 nM
TGIR (tumor growth inhibition rate) [1]: 29.5%

Structure (SMILES): COc1cc2nccc(Oc3ccc(NC(=O)Nc4ncc(C)s4)c(F)c3)c2cc1OC [Ex. 21, N-{4-[(6,7-Dimethoxy-4-quinolyl)oxy]-2-fluorophenyl}-N′-(5-methyl-1.3-thiazol-2-yl)urea hydrochloride]
IC50 (human KDR): 0.4 nM
inhibition in vivo at 20 mg/kg [1]: 66.6%

Structure (SMILES): COc1cc2nccc(Oc3ccc(NC(=O)Nc4nc(C)c(C)s4)c(F)c3)c2cc1OC [Ex. 23, N-{4-[(6,7-Dimethoxy-4-quinolyl)oxy]-2-fluorophenyl}-N′-(4,5-dimethyl-1,3-thiazol-2-yl)urea]
IC50 (human KDR): < 1 nM
inhibition in vivo at 20 mg/kg [1]: 51.7%

Structure (SMILES): COc1cc2nccc(Oc3ccc(NC(=O)Nc4nc(C)c(C)s4)c(Cl)c3)c2cc1OC [Ex. 24, N-{2-Chloro-4-[(6,7-dimethoxy-4-quinolyl)oxy]phenyl}-N′-(4,5-dimethyl-1,3-thiazol-2-yl)urea]
IC50 (human KDR): 1 nM
inhibition in vivo at 20 mg/kg [1]: 39.8%

Structure (SMILES): CCOC(=O)Cc1csc(NC(=O)Nc2ccc(Oc3ccnc4cc(OC)c(OC)cc34)cc2F)n1 [Ex. 29, Ethyl 2-{2-[({4-[(6,7-dimethoxy-4-quinolyl)oxy]-2-fluoroanilino}carbonyl)amino]-1,3-thiazol-4-yl}acetate]
IC50 (human KDR): 49.4 nM
inhibition in vivo at 20 mg/kg [1]: 66.1%

Structure (SMILES): COc1cc2ncnc(Oc3ccc(NC(=O)Nc4nc(C)c(C)s4)c(Cl)c3)c2cc1OC [Ex. 40, N-{2-Chloro-4-[(6,7-dimethoxy-4-quinazolinyl)oxy]phenyl}-N′-(4,5-dimethyl-1,3-thiazol-2-yl)urea]
IC50 (human KDR): < 1 nM
inhibition in vivo at 20 mg/kg [1]: 34.2%

Structure (SMILES): COc1cc2ncnc(Oc3ccc(NC(=O)Nc4nc(C)c(C)s4)cc3Cl)c2cc1OC [Ex. 49, N-{3-Chloro-4-[(6,7-dimethoxy-4-quinazolinyl)oxy]phenyl}-N′-(4,5-dimethyl-1,3-thiazol-2-yl)urea]
IC50 (human KDR): 3.1 nM

Structure (SMILES): CCc1nnc(NC(=O)Nc2ccc(Oc3ccnc4cc(OC)c(OC)cc34)cc2F)s1 [Ex. 63, N-{4-[(6,7-Dimethoxy-4-quinolyl)oxy]-2-fluorophenyl}-N′-(5-ethyl-1,3,4-thiadiazol-2-yl)urea]
IC50 (human KDR): < 1 nM

Structure (SMILES): CCc1nnc(NC(=O)Nc2ccc(Oc3ccnc4cc(OC)c(OC)cc34)c(F)c2)s1 [Ex. 64, N-{4-[(6,7-Dimethoxy-4-quinolyl)oxy]-3-fluorophenyl}-N′-(5-ethyl-1,3,4-thiadiazol-2-yl)urea]
IC50 (human KDR): 1.5 nM

Structure (SMILES): CCc1nnc(NC(=O)Nc2ccc(Oc3ccnc4cc(OC)c(OC)cc34)cc2Cl)s1 [Ex. 65, N-{2-Chloro-4-[(6,7-dimethoxy-4-quinolyl)oxy]phenyl}-N′-(5-ethyl-1,3,4-thiadiazol-2-yl)urea]
IC50 (human KDR): < 1 nM

Structure (SMILES): CCc1nnc(NC(=O)Nc2ccc(Oc3ccnc4cc(OC)c(OC)cc34)c(Cl)c2)s1 [Ex. 66, N-{3-Chloro-4-[(6,7-dimethoxy-4-quinolyl)oxy]phenyl}-N′-(5-ethyl-1,3,4-thiadiazol-2-yl)urea]
IC50 (human KDR): 3.7 nM

Structure (SMILES): COc1cc2nccc(Oc3ccc(NC(=O)Nc4nnc(C5CC5)s4)c(Cl)c3)c2cc1OC [Ex. 67, N-{2-Chloro-4-[(6,7-dimethoxy-4-quinolyl)oxy]phenyl}-N′-(5-cyclopropyl-1,3,4-thiadiazol-2-yl)urea]
IC50 (human KDR): 2.4 nM

Structure (SMILES): COc1cc2nccc(Oc3ccc(NC(=O)Nc4nnc(C5CC5)s4)cc3Cl)c2cc1OC [Ex. 68, N-{3-Chloro-4-[(6,7-dimethoxy-4-quinolyl)oxy]phenyl}-N′-(5-cyclopropyl-1,3,4-thiadiazol-2-yl)urea]
IC50 (human KDR): 18 nM

Structure (SMILES): CCSc1nnc(NC(=O)Nc2ccc(Oc3ccnc4cc(OC)c(OC)cc34)cc2F)s1 [Ex. 70, N-{4-[(6,7-Dimethoxy-4-quinolyl)oxy]-2-fluorophenyl}-N′-[5-(ethylsulfanyl)-1,3,4-thiadiazol-2-yl]urea]
IC50 (human KDR): 2.2 nM

Structure (SMILES): CCSc1nnc(NC(=O)Nc2ccc(Oc3ccnc4cc(OC)c(OC)cc34)c(C)c2C)s1 [Ex. 71, N-{4-[(6,7-Dimethoxy-4-quinolyl)oxy]-2,3-dimethylphenyl}-N′-[5-(ethylsulfanyl)-1,3,4-thiadiazol-2-yl]urea]
IC50 (human KDR): 3.1 nM

Structure (SMILES): COc1cc2nccc(Oc3ccc(NC(=O)Nc4nnc(C(F)(F)F)s4)c(Cl)c3)c2cc1OC [Ex. 72, N-{2-Chloro-4-[(6,7-dimethoxy-4-quinolyl)oxy]phenyl}-N′-[5-(trifluoromethyl)-1,3,4-thiadiazol-2-yl]urea]
IC50 (human KDR): 2.9 nM

Structure (SMILES): COc1cc2nccc(Oc3ccc(NC(=O)Nc4nnc(C(F)(F)F)s4)cc3Cl)c2cc1OC [Ex. 73, N-{3-Chloro-4-[(6,7-dimethoxy-4-quinolyl)oxy]phenyl}-N′-[5-(trifluoromethyl)-1,3,4-thiadiazol-2-yl]urea]
IC50 (human KDR): 21 nM

Structure (SMILES): COc1cc2nccc(Oc3ccc(NC(=O)Nc4nnc(C(C)(C)C)s4)c(F)c3)c2cc1OC [Ex. 74, N-[5-(Tert-butyl)-1,3,4-thiadiazol-2-yl]-N′-{4-[(6,7-dimethoxy-4-quinolyl)oxy]-2-fluorophenyl}urea]
IC50 (human KDR): 3 nM

Structure (SMILES): COc1cc2nccc(Oc3ccc(NC(=O)Nc4nnc(C(C)(C)C)s4)c(C)c3C)c2cc1OC [Ex. 75, N-[5-(Tert-butyl)-1,3,4-thiadiazol-2-yl]-N′-{4-[(6,7-dimethoxy-4-quinolyl)oxy]-2,3-dimethylphenyl}-urea]
IC50 (human KDR): 4.5 nM
